Experimental data taken from patent US20260248747A1, “PHYSICAL PERFORMANCE AID” (aXichem AB, priority 2023, published 2026).
Where “and” joins values, the source holds several entries; their conditions need not be identical. Identical values can stand only once. Entries after “also recorded” stand apart in the source; their conditions may differ.

What was measured:
trained men = details: acute 12 mg capsaicin; squat exercise; cited from earlier work
[1] = high-dose oral encapsulated capsaicin, 25.8 mg; cited from earlier work
[2] = 1.2 mg purified capsaicin in gummy format; isokinetic knee extension; cited from earlier work
[3] = test system: healthy men with resistance training experience; parameters: species or system human; details: in vivo
resistance trained men [4] = test system: resistance trained men; parameters: species or system human; details: in vivo
resistance trained men [5] = test system: resistance trained men; parameters: species or system human; details: in vivo
[6] = test system: healthy men with resistance training experience; parameters: species or system human; details: in vivo; remark: listed apart in the source
[7] = test system: healthy men with resistance training experience; parameters: species or system human; details: in vivo; remark: listed apart in the source
resistance trained men [8] = test system: resistance trained men; parameters: species or system human; details: in vivo; remark: listed apart in the source
resistance trained men [9] = test system: resistance trained men; parameters: species or system human; details: in vivo; remark: listed apart in the source
[10] = test system: healthy men with resistance training experience; parameters: species or system human; details: in vivo; remark: listed apart in the source
resistance trained men [11] = test system: resistance trained men; parameters: species or system human; details: in vivo, po

COc1cc(CNC(=O)CCCC/C=C/C(C)C)ccc1O [capsaicin, 8-methyl-N-vanillyl-trans-6-nonenamide]
number of repetitions until failure (trained men): increased significantly | rated perceived exertion overall body (RPE-OB) (trained men): reduced | total weight lifted (trained men): increased significantly | tolerability after oral supplementation [1]: intestinal discomfort | summed torque or fatigue index [2]: did not reach significant differences

phenylcapsaicyn
CMJ height post values, post-hoc Wilcoxon comparison [3]: significant differences | countermovement jump (CMJ) post and post 24 stages [3]: exhibited higher values | percentage of change in CMJ from pre to post values, post-hoc analyses [3]: did not reach any significant difference | 60% fastest velocity, post-hoc Bonferroni comparison (resistance trained men [4]): significant differences between LD and PLA | 60% fastest-V (resistance trained men [4]): 0.97 ± 0.07 m · s^−1 and 0.96 ± 0.07 m · s^−1 | Fastest-V (resistance trained men [4]): 0.87 ± 0.03 m · s^−1 and 0.80 ± 0.06 m · s^−1 | Mean-Vt (resistance trained men [4]): 0.61 ± 0.07 m · s^−1 and 0.64 ± 0.07 m · s^−1 | Repetitions performed in the protocol (resistance trained men [4]): 24 ± 0.00 | Slowest-Vt (resistance trained men [4]): 0.45 ± 0.09 m · s^−1 and 0.49 ± 0.09 m · s^−1 | Weight (resistance trained men [4]): 87.69 ± 15.87 kg and 87.57 ± 14.69 kg | maximal velocity loss, post-hoc Bonferroni comparison (resistance trained men [4]): significant differences between HD and LD | mean velocity, post-hoc Bonferroni comparison (resistance trained men [4]): almost was achieved between HD and PLA | PRS, one-way repeated measures ANOVA between conditions (resistance trained men [5]): no differences between conditions | RPE-AM (local RPE in quadriceps), Bonferroni post-hoc comparison (resistance trained men [5]): significant differences | RPE-OB, Bonferroni post-hoc analyses between conditions (resistance trained men [5]): no significant differences | perceived exertion for the active muscle, RPE-AM (resistance trained men [5]): reduced perceived exertion for the active muscle | 60% load MFP best [6]: 950.82 ± 170.05 N and 945.34 ± 152.48 N and 907.38 ± 148.53 N and 903.85 ± 155.90 N and 930.60 ± 146.67 N and 936.27 ± 149.32 N | 60% load MPP best [6]: 822.00 ± 166.47 W and 810.71 ± 157.90 W and 688.32 ± 166.67 W and 698.67 ± 180.46 W and 796.70 ± 149.05 W and 798.56 ± 170.19 W | 60% load MPV best [6]: 0.93 ± 0.06 m/s and 0.80 ± 0.08 m/s and 0.81 ± 0.12 m/s and 0.93 ± 0.09 m/s and 0.91 ± 0.08 m/s | % VL (percentage of velocity loss during a set) [6]: 29.78 ± 10.90% and 26.62 ± 9.37% and 30.91 ± 10.24% and 26.65 ± 11.73% and 34.36 ± 12.15% | MFP mean [6]: 974.60 ± 162.62 N and 962.14 ± 148.59 N and 950.75 ± 161.58 N and 942.66 ± 141.94 N and 941.04 ± 156.67 N and 931.41 ± 141.91 N | MPP Best [6]: 770.42 ± 151.29 W and 744.70 ± 169.44 W and 694.45 ± 160.43 W and 701.32 ± 147.81 W and 681.99 ± 149.20 W and 683.86 ± 141.59 W | MPP mean [6]: 626.70 ± 147.11 W and 612.99 ± 145.84 W and 559.89 ± 128.61 W and 583.27 ± 128.14 W and 539.99 ± 126.34 W and 548.46 ± 135.58 W | MPV best [6]: 0.78 ± 0.05 m/s and 0.79 ± 0.06 m/s and 0.72 ± 0.07 m/s and 0.74 ± 0.07 m/s and 0.71 ± 0.07 m/s and 0.73 ± 0.05 m/s | MPV mean [6]: 0.66 ± 0.07 m/s and 0.68 ± 0.07 m/s and 0.60 ± 0.07 m/s and 0.64 ± 0.08 m/s and 0.58 ± 0.08 m/s and 0.61 ± 0.08 m/s | MPV of individual repetitions, post-hoc Bonferroni [6]: differences between HD and PLA in repetition 23; also recorded: HD and LD in repetitions 15 and 16 | Total volume load [6]: 2,014.57 ± 380.94 kg | MIF [7]: 1,175.92 ± 370.86 N and 1,182.71 ± 429.84 N and 1,063.035 ± 265.86 N and 1,091.67 ± 331.61 N and 1,084.25 ± 375.82 N and 1,131.50 ± 420.02 N | RFD0-50 [7]: 2,765.42 ± 1,725.44 N · s^1 and 2,544.07 ± 1,150.29 N · s^1 and 2,335.85 ± 1,408.53 N · s^1 and 2,375.33 ± 1,172.75 N · s^1 and 2,006.35 ± 773.62 N · s^1 and 2,190.07 ± 1,249.61 N · s^1 | RFD0-100 [7]: 2,921.42 ± 1,353.33 N · s^1 and 2,585.57 ± 1,998.95 N · s^1 and 2,320.43 ± 1,229.46 N · s^1 and 1,968.46 ± 1,373.43 N · s^1 and 2,129.25 ± 942.03 N · s^1 and 2,377.32 ± 1,196.68 N · s^1 | RFD0-150 [7]: 2,958.42 ± 1,280.93 N · s^1 and 2,635.67 ± 1,075.21 N · s^1 and 2,388.16 ± 1,184.60 N · s^1 and 2,129.54 ± 1,279.24 N · s^1 and 2,260.47 ± 1,032.89 N · s^1 and 2,450.52 ± 1,275.39 N · s^1 | RFD0-200 [7]: 2,697.29 ± 1,219.14 N · s^1 and 2,456.98 ± 1,052.11 N · s^1 and 2,178.30 ± 1,101.08 N · s^1 and 1,973.26 ± 1,214.84 N · s^1 and 2,067.32 ± 978.09 N · s^1 and 2,361.75 ± 1,214.58 N · s^1 | RFD0-400 [7]: 1,764.86 ± 898.55 N · s^1 and 1,784.80 ± 809.39 N · s^1 and 1,489.55 ± 733.99 N · s^1 and 1,521.34 ± 853.94 N · s^1 and 1,610.34 ± 773.99 N · s^1 and 1,664.43 ± 912.04 N · s^1 | isometric mechanical outcomes (MIF, RFD), two-way repeated measures ANOVAs [7]: no significant differences for any outcome | percentage of change for urea values, post-hoc Wilcoxon comparison (resistance trained men [8]): significant higher percentage of change for LID compared to PLA | Urea (resistance trained men [8]; po): 40.77 ± 14.17 mg/dL and 37.48 ± 18.18 mg/dL and 29.77 ± 10.67 mg/dL and 30.31 ± 10.41 mg/dL | AST post values, post-hoc Wilcoxon comparison (resistance trained men [9]): significant higher post levels of AST for PLA compared to HD | AST (resistance trained men [9]; po): 17.40 ± 11.25 U/L and 16.37 ± 11.29 U/L and 27.06 ± 14.66 U/L and 22.39 ± 10.86 U/L | AST (% change) (resistance trained men [9]; po): 119.62 ± 166.08% and 110.21 ± 167.16% | 60% load MDF VLA [10]: 94.20 ± 12.57% and 92.43 ± 15.57% and 87.66 ± 11.86% and 87.61 ± 11.16% and 89.62 ± 12.28% and 94.85 ± 19.89% | 60% load MDF VM [10]: 93.24 ± 12.84% and 87.62 ± 9.55% and 88.27 ± 13.74% and 87.29 ± 15.23% and 88.62 ± 16.06% and 84.97 ± 10.64% | 60% load RMS VLA [10]: 131.16 ± 36.34% and 144.45 ± 50.27% and 119.38 ± 47.67% and 103.95 ± 49.44% and 149.81 ± 47.00% and 133.16 ± 33.21% | 60% load RMS VLA, post-hoc Bonferroni comparison [10]: significant differences between PLA and LID | 60% load RMS VM [10]: 131.17 ± 29.13% and 120.88 ± 31.08% and 117.18 ± 19.75% and 112.41 ± 42.15% and 133.87 ± 43.81% and 138.30 ± 47.06% | Isometric MDF VLA [10]: 98.12 ± 9.79% and 99.07 ± 13.42% and 97.78 ± 9.79% and 100.39 ± 12.86% | Isometric MDF VM [10]: 93.75 ± 11.10% and 91.04 ± 14.79% and 97.28 ± 13.72% and 101.88 ± 18.22% | Isometric RMS VLA [10]: 99.88 ± 41.48% and 99.21 ± 50.39% and 126.91 ± 33.50% and 100.25 ± 25.60% | Isometric RMS VM [10]: 120.01 ± 58.48% and 118.65 ± 41.54% and 113.38 ± 24.62% and 102.79 ± 32.43% | Training MDF VLA [10]: 89.90 ± 10.21% and 90.47 ± 12.71% and 88.36 ± 11.03% and 89.99 ± 12.70% and 86.91 ± 9.27% and 89.91 ± 11.39% | Training MDF VM [10]: 85.63 ± 11.87% and 91.01 ± 15.42% and 84.07 ± 11.93% and 90.42 ± 18.35% and 83.74 ± 9.68% and 90.58 ± 15.25% | Training RMS VLA [10]: 123.84 ± 34.86% and 121.24 ± 36.40% and 146.42 ± 47.13% and 119.29 ± 38.40% and 135.14 ± 53.99% and 107.20 ± 42.77% | Training RMS VM [10]: 128.39 ± 50.89% and 111.81 ± 31.90% and 132.39 ± 40.98% and 109.58 ± 36.84% and 138.04 ± 55.37% and 107.44 ± 35.96% | training RMS VM, post-hoc Bonferroni comparison [10]: significant differences were found between HD and LID | Lactate (% change) (resistance trained men [11]): 663.97 ± 352.36% and 653.16 ± 307.31%
